{"source": "patent US20060026702A1", "about": "“Phosphoinositide 3-kinase mediated inhibition of GPCRs” (DUKE UNIVERSITY, priority 2002, published 2006)", "key": {"β2AR": {"test_system": "β2AR", "assay": "β2AR sequestration in HEK-293 cells by 125I-Cyanopindolol binding", "format": "cell-based", "settings": "1 μM isoproterenol; LY294002 100 μM 15 min before", "procedure": "Determination of β2AR Sequestration in HEK-293 Cells by ^125I-Cyanopindolol (CYP) Binding—β2AR sequestration was performed as previously described. Briefly, HEK-293 cells were plated at a density of 2.5×10^6 cells/dish and transfected the following day with plasmids containing either the β2AR (150-250 ng), β2AR (250 ng) and HEAT domain (4 μg), PI3Kγ (4.0 μg) or ΔPI3Kγ (4.0 μg) cDNAs. Twelve hours after transfection cells were split into six well Falcon plates at a density of 750,000 cells/well. […] To determine the amount of internalized receptor, 100 μl aliquots of whole cells were added to 150 μl of binding buffer (75 mM Tris-HCl, 10 mM MgCl2, 5 mM EDTA (pH 7.5)). Total binding was determined in the presence of 175 pM ^125I-CYP alone, the number of internalized receptors were determined by using 175 pM ^125I-CYP plus 100 nM CGP12177, and non-specific binding was determined using 175 pM ^125I-CYP plus 1 μM propranolol. Sequestration was calculated as the ratio of (specific receptor binding of ^125I-CYP in the presence of CGP12177)/(specific receptor binding of ^125I-CYP in the absence of CGP12177)."}, "PI3K": {"target": "T1, PI3K (Homo sapiens, UniProt P48736, DEL30-30/Q459R)", "T1 construct": "expressed in transfected cells; host or cells: NIH-3T3", "T1 sequence (P48736 with tags, fused parts or gaps DEL30-30/Q459R)": "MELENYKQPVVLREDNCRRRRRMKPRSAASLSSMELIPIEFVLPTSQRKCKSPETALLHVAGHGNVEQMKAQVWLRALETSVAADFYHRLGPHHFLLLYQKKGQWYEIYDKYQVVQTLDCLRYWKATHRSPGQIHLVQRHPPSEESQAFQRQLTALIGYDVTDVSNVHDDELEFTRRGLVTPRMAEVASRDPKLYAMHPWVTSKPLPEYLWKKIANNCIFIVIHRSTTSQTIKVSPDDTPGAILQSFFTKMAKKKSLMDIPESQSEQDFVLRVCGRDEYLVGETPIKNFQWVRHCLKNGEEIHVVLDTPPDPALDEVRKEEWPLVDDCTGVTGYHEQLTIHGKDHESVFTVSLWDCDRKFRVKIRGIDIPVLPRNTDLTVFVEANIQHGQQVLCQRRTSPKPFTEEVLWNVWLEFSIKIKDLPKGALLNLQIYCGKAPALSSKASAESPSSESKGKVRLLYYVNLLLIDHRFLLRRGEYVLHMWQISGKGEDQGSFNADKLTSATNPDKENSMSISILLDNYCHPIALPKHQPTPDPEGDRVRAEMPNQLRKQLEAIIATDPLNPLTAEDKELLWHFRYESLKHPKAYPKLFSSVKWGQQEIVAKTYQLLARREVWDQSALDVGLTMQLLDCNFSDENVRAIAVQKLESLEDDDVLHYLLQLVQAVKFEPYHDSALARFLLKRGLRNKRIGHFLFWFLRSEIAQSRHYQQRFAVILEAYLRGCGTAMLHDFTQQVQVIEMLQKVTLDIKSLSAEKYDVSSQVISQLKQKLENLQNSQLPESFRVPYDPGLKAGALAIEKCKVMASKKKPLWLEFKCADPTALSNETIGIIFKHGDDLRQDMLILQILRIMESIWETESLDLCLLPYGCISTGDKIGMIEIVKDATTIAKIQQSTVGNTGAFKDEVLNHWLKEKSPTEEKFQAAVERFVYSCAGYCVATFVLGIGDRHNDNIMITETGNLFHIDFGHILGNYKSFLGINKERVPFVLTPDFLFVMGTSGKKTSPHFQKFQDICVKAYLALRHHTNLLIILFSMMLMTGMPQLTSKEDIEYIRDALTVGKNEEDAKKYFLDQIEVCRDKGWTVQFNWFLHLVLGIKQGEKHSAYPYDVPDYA", "assay": "βARK1 associated PI3K activity (lipid kinase assay) in transfected NIH-3T3 cells", "format": "cell-based, Mouse", "settings": "10 μM isoproterenol, 2 min; cells co-transfected with βARK1 and HA-PI3Kγ", "experimental": "Cell Culture—Mouse NIH-3T3 and HEK293 cells were maintained in either Iscoves modified Dulbecco's medium or minimal essential medium (MEM) supplemented with 10% fetal bovine serum and 1:100 penicillin-streptomycin (10,000 U/ml) at 37° C. Cells were seeded at a density of ˜1-3×10^5 cells/35 mm^2 dish and at 70-80% confluence were transiently transfected using the transfection reagent FUGENE6 (ROCHE) or calcium phosphate precipitation. Cells were harvested 24 hours after transfection, re-plated in triplicate, allowed to grow overnight and serum starved for 2-4 hours before agonist stimulation.\nCytosolic and Membrane Fractionation—Cell monolayers were scraped in 1 ml of buffer containing 25 mM Tris-HCl (pH 7.5), 5 mM EDTA, 5 mM EGTA, 1 mM phenylmethylsulfonyl fluoride, 2 μg/ml each of leupeptin and aprotinin and disrupted further by using Dounce homogenizer. Intact cells and nuclei were removed by-centrifugation at 1,000×g for 5 min. The collected supernatant was further subject to a centrifugation at 38,000×g for 25 min. The pellet was resuspended in lysis buffer (1% Nonidet P-40, 10% glycerol, 137 mM NaCl, 20 mM Tris-Cl (ph 7.4), 1 mM phenylmethylsulfonyl fluoride, 20 mM NaF, 1 mM sodium pyrophosphate, 1 mM sodium orthovanadate and 2 μg/ml each of aprotinin and leupeptin) and used as membrane fraction and the supernatant was diluted in lysis buffer and used as the cytosolic fraction.\nLipid Kinase Assays—Cells were lysed in lysis buffer and 2 mg cytosolic extract was used for immunoprecipitation with either the C5/1 monoclonal antibody directed against βARK1, the anti-FLAG M2 monoclonal antibody (Sigma) or antibodies to p110γ, or p110β (Santa Cruz Biotechnology) and protein G-agarose. Sedimented beads were then washed once with 1 ml of lysis buffer, thrice with 1 ml of phosphate-buffered saline (1× phosphate-buffered saline, 1% NP-40 and 100 μM sodium orthovanadate), thrice with 1 ml of Tris/LiCl (100 mM Tris-HCl (pH 7.4), 5 mM LiCl and 100 μM sodium orthovanadate) and twice with TNE (10 mM Tris Cl (pH 7.4), 150 mM NaCl, 5 mM EDTA and 100 μM sodium orthovanadate). Samples were then resuspended in 50 ml of TNE and 10 μl of 100 mM MgCl2 was added to each sample. The substrate, phosphatidylinositol (PI, Avanti), was prepared by drying 50 μl of the 10 mg/ml stock (PI in chloroform) in an eppendorf tube with a stream of air and adding 250 μl of TE (10 mM Tris Cl (pH 7.4) and 1 mM EDTA). The PI was then suspended by sonication in an ice bath for 3 minutes. 10 p, of the PI solution and 11 μl of ATP solution (440 μM cold ATP and 1 μCi/μl of [γ-32P]ATP) were added to each sample. […] Autoradiography of dried plates was used to detect signals, and PIP was quantified by phosphorimaging. […] Values are expressed as fold increase/decrease relative to wild-type/control."}, "β2AR complex": {"test_system": "β2AR complex", "assay": "Recruitment of AP-2 adaptin and clathrin to the agonist-stimulated β2AR complex (immunoprecipitation, immunoblot)", "format": "cell-based", "settings": "saponin-permeabilized cells, isoproterenol 5 min; compared to similar concentration of Ptdlns (4,5) P2", "procedure": "Immunoblotting and Detection—Immunoblotting and detection of PI3K, βARK1, HA-PI3Kγ, HA-ΔPI3Kγ, Myc-PI3Kα, FLAG-HEAT, PI3KΔHEAT-HA, FLAG-β2AR, HA-β2AR, β-adaptin and clathrin was carried out as previously described. Immunoprecipitating antibodies were added to 500 μg of cell lysate in lysis buffer followed by the addition of 35 μl of 1:1 Protein A- or G-agarose. Samples were rocked overnight at 4° C. then centrifuged at 12,000×g for 5 min. Immunoprecipitates were washed twice with lysis buffer, twice with 1×PBS and resuspended in 1×SDS-gel loading buffer. Proteins were resolved by SDS-polyacrylamide gel electrophoresis and blotted on to PVDF membrane (Bio-Rad). Blots were incubated with antibodies recognizing PI3K, Myc (Santa-Cruz), β-adaptin, clathrin heavy chain (BD Transduction Laboratories), HA (Roche Molecular Biochemicals) and FLAG (Sigma) at 1:2000 dilution and the βARK1 monoclonal antibody at 1:10,000 dilution. Blots were subsequently incubated with appropriate secondary antibody (1:2000 dilution) conjugated to horseradish peroxidase (Amersham Pharmacia Biotech) and detection was carried out using enhanced chemiluminescence. […]\nThe present inventors determined that βARK1-mediated localization of PI3K within the activated receptor complex is responsible for the generation of D-3 phosphatidylinositols necessary for the efficient recruitment of adaptin to the P2AR complex. […]"}}}
{"molecule": "O=c1cc(N2CCOCC2)oc2c(-c3ccccc3)cccc12", "note": "[LY294002, reference compound]", "values": [{"measurement": "reduction in sequestration", "setting": "β2AR", "value": 50, "unit": "%"}]}
{"molecule": "CC(C)NCC(O)c1ccc(O)c(O)c1", "note": "(stereo not shown) [isoproterenol, reference compound]", "values": [{"measurement": "βARK1 associated PI3K activity in the cytosolic fraction after agonist", "setting": "PI3K", "value": "little change"}, {"measurement": "βARK1 associated PI3K activity in the membrane fraction after agonist", "setting": "PI3K", "value": "significant increase"}]}
{"molecule": "phosphatidylinositol 3,4,5-triphosphate [Ptdlns (3,4,5) P3, reference compound]", "values": [{"measurement": "efficiency of recruitment of adaptin to the receptor", "setting": "β2AR complex", "value": "significantly enhanced"}]}
